{"source": "patent US20200246284A1", "about": "(Academia Sinica, priority 2015, published 2020)", "key": {"H125": {"test_system": "H125", "format": "cell-based, human"}, "H525": {"test_system": "H525", "format": "cell-based, human"}, "NOSE ovarian epithelium": {"test_system": "NOSE ovarian epithelium", "format": "cell-based, human"}, "HCC2450": {"test_system": "HCC2450", "format": "cell-based, human"}, "CL100T1": {"test_system": "CL100T1", "format": "cell-based, human"}, "CALU-6": {"test_system": "CALU-6", "format": "cell-based, human"}, "H889": {"test_system": "H889", "assay": "Cytotoxicity SCLC 72 hr alamar blue", "format": "cell-based, human", "conditions": "read-out: IC50"}, "[1]": {"test_system": "IMR90 fetal lung myofibroblast", "assay": "Cytotoxicity normal tissue 72 hr", "format": "cell-based, human"}, "H596": {"test_system": "H596", "format": "cell-based, human"}, "A549": {"test_system": "A549", "format": "cell-based, human"}, "H211": {"test_system": "H211", "assay": "Cytotoxicity SCLC 72 hr alamar blue", "format": "cell-based, human"}, "H322": {"test_system": "H322", "format": "cell-based, human"}, "H1781": {"test_system": "H1781", "format": "cell-based, human"}, "H146": {"test_system": "H146", "assay": "Cytotoxicity SCLC 72 hr alamar blue", "format": "cell-based, human"}, "CALU-3": {"test_system": "CALU-3", "format": "cell-based, human"}, "[2]": {"test_system": "FTE-hTERT Fallopian epithelium", "assay": "Cytotoxicity normal tissue 72 hr", "format": "cell-based, human"}, "HCC364": {"test_system": "HCC364", "format": "cell-based, human"}, "HS578 breast epithelium": {"test_system": "HS578 breast epithelium", "assay": "Cytotoxicity normal tissue 72 hr", "format": "cell-based, human"}, "H209": {"test_system": "H209", "assay": "Cytotoxicity SCLC 72 hr alamar blue", "format": "cell-based, human"}, "H2228": {"test_system": "H2228", "format": "cell-based, human"}, "H1755": {"test_system": "H1755", "format": "cell-based, human"}, "H3122": {"test_system": "H3122", "format": "cell-based, human"}, "H1975": {"test_system": "H1975", "format": "cell-based, human"}, "A204 rhabdomyosarcoma": {"test_system": "A204 rhabdomyosarcoma", "assay": "Cytotoxicity sarcoma", "conditions": "read-out: cytotoxic activity (IC50), A204 (rhabdoid?)", "quoted_text": "(§1) After 72 hours, the cultures were pulsed with Alamar Blue overnight, and the fluorescent intensity of resulted cultures was measured by a Synergy H1 plate-reader (BioTek Inc)."}, "[3]": {"test_system": "spontaneous murine B-cell lymphoma", "conditions": "mouse"}, "[4]": {"conditions": "for Microsome stability, turnover: 60 mins"}, "LY7 (OCH-Ly7)": {"test_system": "LY7 (OCH-Ly7)", "assay": "Cytotoxicity DLBCL", "conditions": "read-out: cytotoxicity IC50; LY7, DLBCL GCB"}, "[5]": {"test_system": "Human Cancer Cell lines, Primary Patient Tumor Samples and normal tissues", "assay": "Sensitivity classes over panel of cancer lines and normal tissues", "format": "cell-based", "conditions": "tumor cell lines of Table 12"}, "[6]": {"test_system": "lymphoma cell lines (DLBCL GBC and ABC, mantle cell lymphoma)", "assay": "Cytotoxicity, panel of lymphoma cell lines (Tables 23, 24, 26)", "format": "cell-based", "conditions": "Homo sapiens"}, "[7]": {"assay": "Pharmacokinetics, IV bolus 10 mg/kg", "format": "in vivo, Sprague-Dawley rats", "conditions": "rat", "method": "Serial blood samples were collected from the jugular vein at 0, 5, 10, 15, 30, 45, 60, 90, 120, 150, 180, 240, 300, 360 min after dosing. […] All pharmacokinetic analysis was carried out using the WinNonlin Standard Edition Version 1.0 (Scientific Consulting Inc., Apex, NC, USA)."}, "Farage": {"test_system": "Farage", "assay": "cells", "conditions": "Homo sapiens, read-out: cytotoxicity IC50"}, "SUDHL-5": {"test_system": "SUDHL-5", "assay": "Cytotoxicity DLBCL", "conditions": "read-out: cytotoxicity IC50; SUDHL-5, DLBCL GCB"}, "Pfeiffer": {"test_system": "Pfeiffer", "conditions": "human", "quoted_text": "as §1"}, "[8]": {"test_system": "nude mice bearing prostate 22Rv/HL2", "assay": "Complete blood count, 22Rv/HL2 xenograft mice", "conditions": "24 hrs after last treatment"}, "SET2": {"test_system": "SET2", "assay": "Cytotoxicity leukemia", "format": "cell-based", "conditions": "Homo sapiens, SET-2; SET2 JAK2-V617 mut"}, "CCRF-CEM": {"test_system": "CCRF-CEM", "assay": "Cytotoxicity leukemia", "format": "cell-based, human"}, "DLBCL (GBC) cell lines": {"test_system": "DLBCL (GBC) cell lines", "assay": "Combination of BO-1055 with PUH71, TT46, bortezomib, doxorubicin (Table 25)", "format": "cell-based", "conditions": "Homo sapiens"}, "[9]": {"conditions": "male, Sprague-Dawley, plasma, IV 10 mg/kg, n=5"}, "[10]": {"conditions": "male, Sprague-Dawley, plasma, iv, 10 mg/kg, n=5"}}, "note": "Where two headings read alike, the source gives them in different places."}
{"smiles": "N.N.[Cl][Pt][Cl]", "note": "[Cisplatin]", "values": [{"measurement": "IC50", "setting": "H125", "value": 1.5, "unit": "µM"}, {"measurement": "IC50", "setting": "H525", "value": 7.74, "unit": "µM"}, {"measurement": "IC50", "setting": "NOSE ovarian epithelium", "value": "≥ 25", "unit": "µM"}, {"measurement": "IC50", "setting": "HCC2450", "value": "≥ 80", "unit": "µM"}, {"measurement": "IC50", "setting": "CL100T1", "value": 2.8, "unit": "µM"}, {"measurement": "IC50", "setting": "CALU-6", "value": 3.25, "unit": "µM"}, {"measurement": "IC50", "setting": "H889", "value": 0.41, "unit": "µM"}, {"measurement": "IC50", "setting": "[1]", "value": "> 100", "unit": "µM"}, {"measurement": "IC50", "setting": "H596", "value": "≥ 10", "unit": "µM"}, {"measurement": "IC50", "setting": "A549", "value": "≥ 30", "unit": "µM"}, {"measurement": "IC50", "setting": "H211", "value": 1.21, "unit": "µM"}, {"measurement": "IC50", "setting": "H322", "value": "≥ 10", "unit": "µM"}, {"measurement": "IC50", "setting": "H1781", "value": 1.67, "unit": "µM"}, {"measurement": "IC50", "setting": "H146", "value": 3.77, "unit": "µM"}, {"measurement": "IC50", "setting": "CALU-3", "value": "≥ 100", "unit": "µM"}, {"measurement": "IC50", "setting": "[2]", "value": 100, "unit": "µM"}, {"measurement": "IC50", "setting": "HCC364", "value": "≥ 75", "unit": "µM"}, {"measurement": "IC50", "setting": "HS578 breast epithelium", "value": "> 100", "unit": "µM"}, {"measurement": "IC50", "setting": "H209", "value": 0.31, "unit": "µM"}, {"measurement": "IC50", "setting": "H2228", "value": "≥ 25", "unit": "µM"}, {"measurement": "IC50", "setting": "H1755", "value": "≥ 15", "unit": "µM"}, {"measurement": "IC50", "setting": "H3122", "value": "≥ 30", "unit": "µM"}, {"measurement": "IC50", "setting": "H1975", "value": "≥ 10", "unit": "µM"}]}
{"smiles": "CN(C)CCNC(=O)c1cccc(NC(=O)Nc2ccc(N(CCCl)CCCl)cc2)c1", "note": "[BO-1055, Ureidomustine]", "values": [{"measurement": "IC50", "setting": "A204 rhabdomyosarcoma", "value": 0.08, "unit": "µM"}, {"measurement": "IC50", "setting": "[3]", "value": 0.46, "unit": "µM"}, {"measurement": "Microsome stability, turnover", "setting": "[4]", "value": 75, "unit": "%"}, {"measurement": "Microsome stability, turnover", "setting": "[4]; listed as ureidomustine", "value": "75% (60 mins turnover %)"}, {"measurement": "% Remaining at 60 min", "setting": "[4]; RLM", "value": 25, "unit": "%"}, {"measurement": "MR (metabolic rate)", "setting": "[4]; RLM, 60 min", "value": 0.0203, "unit": "nmol/min/mg"}, {"measurement": "IC50", "setting": "LY7 (OCH-Ly7)", "value": 5.06, "unit": "µM"}, {"measurement": "share of tested cell lines with IC50 in sub-μM range", "setting": "[5]", "value": 30, "unit": "%"}, {"measurement": "IC50", "setting": "[6]; lines with WT Bcl2", "value": "≥ 0.12", "unit": "µM"}, {"measurement": "IC50", "setting": "[6]; two resistant lines", "value": "> 10", "unit": "µM"}, {"measurement": "tissue distribution", "setting": "[7]; IV 10 mg/kg", "value": "accumulated mainly in the kidney, with only a limited amount detected in the brain"}, {"measurement": "Cl", "setting": "[7]; IV 10 mg/kg, n=5, 10 mg/kg", "value": "39.2 ± 10.6", "unit": "mL/min per kg"}, {"measurement": "AUC", "setting": "[7]; [9]", "value": 4450, "unit": "ng·h/mL"}, {"measurement": "Cmax", "setting": "[7]; [9]", "value": "13400 ± 6170", "unit": "ng/mL"}, {"measurement": "clearance", "setting": "[7]; [10]", "value": "39.4 ± 10.6", "unit": "mL/min/kg"}, {"measurement": "half-life", "setting": "[7]; [10]", "value": 46.2, "unit": "min"}, {"measurement": "IC50", "setting": "Farage", "value": 0.44, "unit": "µM"}, {"measurement": "IC50", "setting": "SUDHL-5", "value": 4.14, "unit": "µM"}, {"measurement": "IC50", "setting": "Pfeiffer", "value": 3.87, "unit": "µM"}, {"measurement": "BASO", "setting": "[8]", "value": "0.06 10^3/μL"}, {"measurement": "EOS", "setting": "[8]", "value": "0.14 10^3/μL"}, {"measurement": "LYM", "setting": "[8]", "value": "1.52 10^3/μL"}, {"measurement": "MONO", "setting": "[8]", "value": "0.08 10^3/μL"}, {"measurement": "NEU", "setting": "[8]", "value": "0.83 10^3/μL"}, {"measurement": "PLT", "setting": "[8]", "value": "195 10^3/μL"}, {"measurement": "RBC", "setting": "[8]", "value": "9.52 10^6/μL"}, {"measurement": "WBC", "setting": "[8]", "value": "2.98 10^3/μL"}, {"measurement": "IC50", "setting": "SET2", "value": "> 10", "unit": "µM"}, {"measurement": "IC50", "setting": "CCRF-CEM", "value": "0.13 ± 0.002", "unit": "µM"}, {"measurement": "IC50", "setting": "DLBCL (GBC) cell lines; KARPAS-422, read-out: IC50 single agent", "value": 5.85, "unit": "µM"}, {"measurement": "IC50", "setting": "DLBCL (GBC) cell lines; OCI-LY19, read-out: IC50 single agent", "value": 0.287, "unit": "µM"}, {"measurement": "IC50", "setting": "DLBCL (GBC) cell lines; OCI-Ly8, read-out: IC50 single agent", "value": 0.224, "unit": "µM"}, {"measurement": "IC50", "setting": "DLBCL (GBC) cell lines; OCI-Ly18, read-out: IC50 single agent", "value": 0.608, "unit": "µM"}, {"measurement": "IC50", "setting": "DLBCL (GBC) cell lines; SU-DHL-4, read-out: IC50 single agent", "value": 1.95, "unit": "µM"}, {"measurement": "IC50", "setting": "DLBCL (GBC) cell lines; SU-DHL-5, read-out: IC50 single agent", "value": 4.14, "unit": "µM"}, {"measurement": "IC50", "setting": "DLBCL (GBC) cell lines; SU-DHL-6, read-out: IC50 single agent", "value": 5.93, "unit": "µM"}, {"measurement": "IC50", "setting": "DLBCL (GBC) cell lines; Toledo, read-out: IC50 single agent", "value": 8.95, "unit": "µM"}, {"measurement": "IC50", "setting": "DLBCL (GBC) cell lines; read-out: IC50 single agent", "value": 3.19, "unit": "µM"}]}
